Assay results taken from ChEMBL document CHEMBL3244065, “Neuroleptics related to butaclamol. An investigation of the effects of chlorine substituents on the aromatic rings” (J Med Chem, 1978).

Experiments:
Rattus norvegicus [1] = experiment: Neuroleptic activity in ip dosed Sprague-Dawley rat assessed as conditioned active avoidance failure after 30 mins; assay type: functional; conditions: 0.5 h
Rattus norvegicus [2] = experiment: Neuroleptic activity in ip dosed Sprague-Dawley rat assessed as dose required to decrease the continuous (Sidman) lever-pressing response to <50%; assay type: functional
Rattus norvegicus [3] = experiment: Neuroleptic activity in ip dosed Sprague-Dawley rat assessed as protection against epinephrine-induced mortality administered 1 hr prior to epinephrine injection; assay type: functional
Rattus norvegicus [4] = experiment: Toxicity in ip dosed Sprague-Dawley rat assessed as induction of maximum catalepsy; assay type: organism-based; conditions: in vivo
Rattus norvegicus [5] = experiment: Neuroleptic activity in ip dosed Sprague-Dawley rat assessed as inhibition of amphetamine-induced stereotyped behaviour administered 15 mins after d-amphetamine challenge; assay type: functional; conditions: 0.25 h, read-out: MED

CC(C)[C@@]1(O)CCN2C[C@@H]3c4ccccc4CCc4c(Cl)ccc(c43)[C@H]2C1.Cl
ED50 (Rattus norvegicus [1]): 9 mg/kg | Activity (Rattus norvegicus [2]): 2.5 mg/kg | ED50 (Rattus norvegicus [3]): 50 mg/kg | MED (Rattus norvegicus [4]): 50 mg/kg | minimal effective dose (Rattus norvegicus [5]): 10 mg/kg

CC(C)[C@@]1(O)CCN2C[C@@H]3c4cccc(Cl)c4CCc4cccc(c43)[C@H]2C1.Cl
ED50 (Rattus norvegicus [1]): > 20 mg/kg | Activity (Rattus norvegicus [2]): 20 mg/kg | ED50 (Rattus norvegicus [3]): 100 mg/kg | MED (Rattus norvegicus [4]): 100 mg/kg | minimal effective dose (Rattus norvegicus [5]): 20 mg/kg

CC(C)[C@@]1(O)CCN2C[C@@H]3c4ccc(Cl)cc4CCc4cccc(c43)[C@H]2C1.Cl
ED50 (Rattus norvegicus [1]): 1.1 mg/kg | Activity (Rattus norvegicus [2]): 0.62 mg/kg | ED50 (Rattus norvegicus [3]): 13.9 mg/kg | MED (Rattus norvegicus [4]): 12.5 mg/kg | minimal effective dose (Rattus norvegicus [5]): 1.25 mg/kg

CC(C)[C@@]1(O)CCN2C[C@@H]3c4cc(Cl)ccc4CCc4c(Cl)ccc(c43)[C@H]2C1.Cl
Activity (Rattus norvegicus [2]): >5 mg/kg | ED50 (Rattus norvegicus [3]): > 60 mg/kg | minimal effective dose (Rattus norvegicus [5]): > 20 mg/kg

OCCN1CCN(C2Cc3cc(Cl)ccc3Sc3ccccc32)CC1 (stereo not drawn)
ED50 (Rattus norvegicus [1]): 4.5 mg/kg | Activity (Rattus norvegicus [2]): 2.5 mg/kg | ED50 (Rattus norvegicus [3]): 0.88 mg/kg | MED (Rattus norvegicus [4]): > 50 mg/kg | minimal effective dose (Rattus norvegicus [5]): 20 mg/kg

CN1CCN(C2=Nc3cc(Cl)ccc3Nc3ccccc32)CC1 [CLOZAPINE]
ED50 (Rattus norvegicus [1]): 6.8 mg/kg | Activity (Rattus norvegicus [2]): 7.5 mg/kg | ED50 (Rattus norvegicus [3]): 2.4 mg/kg | MED (Rattus norvegicus [4]): > 100 mg/kg | minimal effective dose (Rattus norvegicus [5]): 50 mg/kg

CC(C)[C@@]1(O)CCN2C[C@@H]3c4ccccc4CCc4cccc(c43)[C@H]2C1 [DEXCLAMOL]
ED50 (Rattus norvegicus [1]): 0.64 mg/kg | Activity (Rattus norvegicus [2]): 0.5 mg/kg | ED50 (Rattus norvegicus [3]): 15 mg/kg | MED (Rattus norvegicus [4]): 12.5 mg/kg | minimal effective dose (Rattus norvegicus [5]): 1.25 mg/kg
